From patent publication US8399486B2, “Benzenesulfonyl compounds and the use thereof” (Purdue Pharma L.P., priority 2007, dated 2013)

Tests used:
[1] = target: T1, L-type calcium channel (LTCC) (Rattus norvegicus, UniProt P22002); experiment: FLIPR calcium mobilization assay for L-type calcium channel; format: cell-based; conditions: calcium mobilization in vitro assay, HEK293 cells expressing recombinant rat LTCC subunits (α1c, α2δ, β1), 90 mM KCl
T1 construct: expressed in transfected cells; pcDNA6.2DEST α1c, pcDNA3.2DEST β1, pcDNA3.1-Zeo α2δ)
Protocol: Recombinant human embryonal kidney cells (HEK293, ATCC) stably transfected with either N-type calcium channel (NTCC) subunits (α1b, α2δ, and β3) or L-type calcium channel (LTCC) subunits (α1c, α2δ, and β1) were routinely cultured in growth medium consisting of Dulbecco's Modified Eagles Medium containing 10% FBS, 100 U/mL penicillin, 100 μg/mL streptomycin, 4 mM L-glutamine, 500 μg/mL geneticin (G418), 20 μg/mL Blasticidin S (InVivogen, San Diego, Calif.) and 500 μg/mL zeocin (InVivogen).
FLIPR Calcium Mobilization Assay for L-type Calcium Channel. One day prior to performing this assay, HEK293 cells stably expressing recombinant rat L-type calcium channel (LTCC) subunits (α1c, α2δ, and β1) were trypsinized, then seeded on poly-D-lysine-coated 96-well clear-bottom black plates (Becton Dickinson, Franklin Lakes, N.J.) at 75,000 cells/well. On the day of the assay, the plates were washed with LTCC wash buffer (127 mM NaCl, 2 mM MgCl2, 700 μM NaH2PO4, 5 mM CaCl2, 5 mM NaHCO3, 8 mM HEPES, 10 mM glucose, pH 7.4), then loaded with 0.1 mL of LTCC wash buffer containing Fluo-4 (3 μM final concentration, Molecular Probes, Eugene, Oreg.). After 1 hour, the cells were washed with 0.1 mL LTCC wash buffer and resuspended in 0.05 mL LTCC assay buffer (same composition as LTCC wash buffer). Plates were then transferred to a FLIPR^96 for assay. The FLIPR measured basal Fluo-4 fluorescence for 15 seconds, then added 0.05 mL of each compound tested diluted in LTCC assay buffer at final concentrations ranging from about 846 pM to about 17 μM. Fluo-4 fluorescence was then measured for 5 minutes. 0.1 mL KCl agonist dissolved in LTCC assay buffer was then added to the cells to produce a final concentration of 90 mM KCl, and fluorescence was measured for another 45 seconds. Data were collected over the entire time course and analyzed using Excel, Graph Pad Prism, or an in-house regression analysis software.
L-type Recombinant Cell Line Development. L-type calcium channel expressing HEK-293 cells were created in two stages. Stage 1 was created as follows. The rat α1c, and β1 cDNA expression constructs (2.5 μg each) were co-transfected into human embryonic kidney (HEK-293) cells by Lipofectamine Plus reagent (Invitrogen), as per manufacturer's instructions. 24 hours later, cells were split in limiting dilution into multiple 96-well plates in selection media containing 20 μg/mL blasticidin and 500 μg/mL geneticin, and incubated for 3 weeks at 37° C., 5% CO2, 95% humidity. […] The FLIPR measured basal Fluo-4 fluorescence for 315 seconds, then added 0.1 mL KCl agonist dissolved in LTCC buffer and measured fluorescence for another 45 seconds. […] Data were collected over the entire time course and analyzed using Excel, Graph Pad Prism, or Activity Base software. […]

[2] = target: T2, N-type calcium channel (NTCC) (Homo sapiens, UniProt Q00975); experiment: FLIPR calcium mobilization assay for N-type calcium channel; format: cell-based; conditions: calcium mobilization in vitro assay, differentiated IMR32 cells, 90 mM KCl, 5 μM nitrendipine
T2 construct: endogenous in cells; host or cells: IMR32 cells (ATCC), differentiated with dibutyryl cAMP and bromodeoxyuridine
Protocol: Cell maintenance and differentiation. Unless noted otherwise, cell culture reagents were purchased from Mediatech of Herndon, Md. IMR32 cells (American Type Culture Collection, ATCC, Manassas, Va.) were routinely cultured in growth medium consisting of minimum essential medium containing 10% fetal bovine serum (FBS, Hyclone, Logan, Utah), 100 U/mL penicillin, 100 μg/mL streptomycin, 2 mM L-glutamine, 1 mM sodium pyruvate, and 1×MEM non-essential amino acids. 80-90% confluent flasks of cells were differentiated using the following differentiation medium: Growth medium plus 1 mM dibutyryl cyclic AMP (Sigma, St. Louis, Mo.), and 2.5 μM bromodeoxyuridine (Sigma). Cells were differentiated for 8 days by replacing differentiation medium every 2-3 days.
FLIPR Calcium Mobilization Assay for N-type Calcium Channel. One day prior to performing this assay, differentiated IMR32 cells were treated with 1× CellStripper, and seeded on poly-D-lysine-coated 96-well clear-bottom black plates (Becton Dickinson, Franklin Lakes, N.J.) at 200,000 cells/well. On the day of the assay, the cell plates were washed with IMR32 buffer (127 mM NaCl, 1 mM KCl, 2 mM MgCl2, 700 μM NaH2PO4, 5 mM CaCl2, 5 mM NaHCO3, 8 mM HEPES, 10 mM glucose, pH 7.4), then pre-stimulated with KCl and loaded as follows: 0.05 mL of IMR32 buffer, 0.05 mL of each compound tested diluted in IMR32 buffer containing 20 μM nitrendipine (Sigma), and 0.1 mL KCl dissolved in IMR32 buffer, plus Fluo-4 were added (3 μM final concentration, Molecular Probes, Eugene, Oreg.). Final test compound concentrations ranged from about 846 μM to about 17 μM, final nitrendipine concentration was 5 μM, and final KCl concentration was 90 mM. After 1 hour, the cells were washed twice with 0.05 mL of each compound tested in nitrendipine-containing IMR32 buffer (no KCl or Fluo-4), and then replaced with 0.1 mL of each compound tested in nitrendipine-containing IMR32 buffer. Plates were then transferred to a Fluorimetric Imaging Plate Reader (FLIPR^96, Molecular Devices, Inc., Sunnyvale, Calif.) for assay. The FLIPR measured basal Fluo-4 fluorescence for 315 seconds (i.e., 5 minutes and 15 seconds), then added 0.1 mL KCl agonist dissolved in IMR32 buffer and measured fluorescence for another 45 seconds. Final test compound concentrations on the cells after FLIPR read ranged from about 846 pM to about 17 μM, final nitrendipine concentration was 5 μM, and final KCl concentration was 90 mM. Data were collected over the entire time course and analyzed using Excel, Graph Pad Prism (version 3.02, Graph Pad, San Diego, Calif.), or an in-house non-linear regression analysis software.

T1 sequence (P22002 whole entry): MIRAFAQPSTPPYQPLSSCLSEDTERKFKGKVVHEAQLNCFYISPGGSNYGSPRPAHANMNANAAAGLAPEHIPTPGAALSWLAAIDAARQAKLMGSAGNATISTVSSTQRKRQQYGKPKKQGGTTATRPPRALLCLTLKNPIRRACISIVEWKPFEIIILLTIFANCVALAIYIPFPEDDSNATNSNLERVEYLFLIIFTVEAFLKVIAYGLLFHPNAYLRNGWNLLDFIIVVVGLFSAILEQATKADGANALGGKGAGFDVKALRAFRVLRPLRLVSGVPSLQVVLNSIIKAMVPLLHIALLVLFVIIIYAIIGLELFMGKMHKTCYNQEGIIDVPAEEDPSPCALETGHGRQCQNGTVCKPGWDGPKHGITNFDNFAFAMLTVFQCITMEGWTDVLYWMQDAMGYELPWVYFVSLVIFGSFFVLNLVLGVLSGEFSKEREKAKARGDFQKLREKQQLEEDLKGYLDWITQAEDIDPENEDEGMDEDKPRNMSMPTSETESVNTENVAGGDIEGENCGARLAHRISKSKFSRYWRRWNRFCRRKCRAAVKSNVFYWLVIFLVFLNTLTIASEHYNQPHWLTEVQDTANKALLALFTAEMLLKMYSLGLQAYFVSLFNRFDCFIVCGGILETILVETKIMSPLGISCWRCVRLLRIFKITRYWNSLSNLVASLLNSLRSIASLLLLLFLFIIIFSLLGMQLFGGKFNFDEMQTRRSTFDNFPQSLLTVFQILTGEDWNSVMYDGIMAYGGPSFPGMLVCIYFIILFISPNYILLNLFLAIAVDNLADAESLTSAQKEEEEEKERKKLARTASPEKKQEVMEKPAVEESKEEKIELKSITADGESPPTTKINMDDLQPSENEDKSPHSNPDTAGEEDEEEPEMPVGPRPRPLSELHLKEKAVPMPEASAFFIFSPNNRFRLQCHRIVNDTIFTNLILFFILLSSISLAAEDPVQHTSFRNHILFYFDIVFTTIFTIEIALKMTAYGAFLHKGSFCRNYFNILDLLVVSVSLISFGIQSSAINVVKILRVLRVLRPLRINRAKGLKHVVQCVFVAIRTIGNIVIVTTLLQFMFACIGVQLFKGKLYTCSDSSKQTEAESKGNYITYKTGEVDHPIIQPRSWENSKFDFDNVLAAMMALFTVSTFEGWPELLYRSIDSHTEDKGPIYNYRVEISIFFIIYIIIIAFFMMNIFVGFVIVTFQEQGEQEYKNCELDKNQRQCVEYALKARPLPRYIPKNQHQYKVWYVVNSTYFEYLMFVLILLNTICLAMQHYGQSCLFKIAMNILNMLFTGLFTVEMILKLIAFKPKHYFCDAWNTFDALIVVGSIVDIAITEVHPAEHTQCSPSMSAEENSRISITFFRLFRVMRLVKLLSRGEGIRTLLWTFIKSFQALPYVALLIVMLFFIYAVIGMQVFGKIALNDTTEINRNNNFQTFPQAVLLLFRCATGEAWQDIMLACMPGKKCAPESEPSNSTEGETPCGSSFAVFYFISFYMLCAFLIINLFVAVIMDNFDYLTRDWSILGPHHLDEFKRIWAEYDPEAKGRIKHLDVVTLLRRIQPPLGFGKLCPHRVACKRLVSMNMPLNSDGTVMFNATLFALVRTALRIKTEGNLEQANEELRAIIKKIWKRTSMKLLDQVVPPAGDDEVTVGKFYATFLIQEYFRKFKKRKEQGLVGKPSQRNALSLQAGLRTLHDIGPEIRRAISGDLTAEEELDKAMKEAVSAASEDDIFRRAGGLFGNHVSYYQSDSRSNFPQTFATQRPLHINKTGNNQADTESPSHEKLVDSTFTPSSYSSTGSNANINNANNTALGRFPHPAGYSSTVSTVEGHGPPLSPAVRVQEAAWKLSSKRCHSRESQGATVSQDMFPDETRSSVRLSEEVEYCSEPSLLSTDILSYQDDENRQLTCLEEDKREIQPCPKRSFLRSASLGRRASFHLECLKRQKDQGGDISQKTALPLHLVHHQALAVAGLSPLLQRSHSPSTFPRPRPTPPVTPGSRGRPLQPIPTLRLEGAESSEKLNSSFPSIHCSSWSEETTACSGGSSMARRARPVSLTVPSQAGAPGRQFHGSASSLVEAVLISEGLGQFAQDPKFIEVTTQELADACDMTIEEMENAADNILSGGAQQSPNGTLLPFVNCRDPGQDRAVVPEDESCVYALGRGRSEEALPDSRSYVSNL
T1 sequence (P54290 25-944 partner): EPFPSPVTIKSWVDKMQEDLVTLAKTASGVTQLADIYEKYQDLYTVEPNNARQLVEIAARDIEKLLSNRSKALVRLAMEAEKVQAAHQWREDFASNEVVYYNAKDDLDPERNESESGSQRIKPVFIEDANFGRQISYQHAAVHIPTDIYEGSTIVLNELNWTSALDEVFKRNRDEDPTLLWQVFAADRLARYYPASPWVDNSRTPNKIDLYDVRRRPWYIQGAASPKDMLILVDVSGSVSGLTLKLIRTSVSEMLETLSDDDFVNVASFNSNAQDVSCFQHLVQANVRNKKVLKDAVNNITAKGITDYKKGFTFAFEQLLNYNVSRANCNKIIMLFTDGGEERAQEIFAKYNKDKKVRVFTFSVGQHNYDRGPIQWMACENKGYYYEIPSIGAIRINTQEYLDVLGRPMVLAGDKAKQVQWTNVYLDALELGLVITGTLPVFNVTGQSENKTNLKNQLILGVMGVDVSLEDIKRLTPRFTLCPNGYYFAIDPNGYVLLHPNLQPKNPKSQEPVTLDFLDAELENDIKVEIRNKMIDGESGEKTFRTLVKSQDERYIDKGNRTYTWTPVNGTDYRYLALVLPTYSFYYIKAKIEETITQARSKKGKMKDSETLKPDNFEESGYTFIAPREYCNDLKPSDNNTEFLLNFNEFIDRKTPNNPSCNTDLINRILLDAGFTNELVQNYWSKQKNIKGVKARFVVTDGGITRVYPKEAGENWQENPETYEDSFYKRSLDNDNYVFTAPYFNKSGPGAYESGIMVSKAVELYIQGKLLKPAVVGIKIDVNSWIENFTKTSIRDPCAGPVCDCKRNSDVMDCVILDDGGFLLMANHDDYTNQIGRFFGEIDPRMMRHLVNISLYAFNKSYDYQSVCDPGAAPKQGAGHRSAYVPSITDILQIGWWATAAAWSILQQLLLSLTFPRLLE
T1 sequence (P54290 945-1091 partner): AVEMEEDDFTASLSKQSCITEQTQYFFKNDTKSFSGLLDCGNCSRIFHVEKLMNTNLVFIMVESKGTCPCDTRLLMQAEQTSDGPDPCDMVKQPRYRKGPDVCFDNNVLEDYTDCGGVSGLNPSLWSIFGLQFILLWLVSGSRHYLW
T1 sequence (P54283 whole entry partner): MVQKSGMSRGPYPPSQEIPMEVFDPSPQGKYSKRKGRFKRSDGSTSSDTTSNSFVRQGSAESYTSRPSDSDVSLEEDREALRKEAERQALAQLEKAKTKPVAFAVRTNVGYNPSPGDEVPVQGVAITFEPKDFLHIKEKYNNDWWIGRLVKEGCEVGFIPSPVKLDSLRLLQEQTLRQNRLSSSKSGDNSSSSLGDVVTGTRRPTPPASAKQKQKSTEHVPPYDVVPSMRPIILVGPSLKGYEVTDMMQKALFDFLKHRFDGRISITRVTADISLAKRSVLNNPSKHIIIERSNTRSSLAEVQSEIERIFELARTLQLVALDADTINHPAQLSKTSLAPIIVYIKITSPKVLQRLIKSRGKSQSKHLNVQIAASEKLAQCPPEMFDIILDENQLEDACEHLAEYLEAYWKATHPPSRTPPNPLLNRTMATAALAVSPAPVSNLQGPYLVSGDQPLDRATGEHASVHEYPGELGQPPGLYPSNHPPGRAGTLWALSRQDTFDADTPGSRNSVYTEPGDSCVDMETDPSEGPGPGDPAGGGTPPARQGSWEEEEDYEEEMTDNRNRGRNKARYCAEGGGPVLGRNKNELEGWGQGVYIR

SMILES	IC50 [1] [µM]	IC50 [2] [µM]
O=C(CNC1CCN(S(=O)(=O)c2cccc(C(F)(F)F)c2)CC1)Nc1ccc(F)cc1 [Compound 6, N-(4-Fluorophenyl)-2-[1-(3-trifluoromethyl-benzenesulfonyl)-piperidin-4-ylamino]acetamide]	> 20	0.46
O=C(CNC1CCN(S(=O)(=O)c2cccc(C(F)(F)F)c2)C1)Nc1ccc(F)cc1 (stereo not drawn) [Compound 10, N-(4-Fluorophenyl)-2-[1-(3-trifluoromethylbenzenesulfonyl)-pyrrolidin-3-ylamino]-acetamide]	5.98	0.47

Next, values leading:

IC50 [1] [µM]	IC50 [2] [µM]	SMILES
9.33	0.79	O=C(CN(C1CC1)C1CCN(S(=O)(=O)c2cccc(C(F)(F)F)c2)CC1)Nc1ccc(F)cc1 [Compound 14, 2-{Cyclopropyl-[1-(3-trifluoromethylbenzenesulfonyl)-piperidin-4-yl]amino}-N-(4-fluorophenyl)acetamide]
	1.29	O=C(CC(=O)NC1CCN(S(=O)(=O)c2cccc(C(F)(F)F)c2)CC1)Nc1ccc(F)cc1F [Compound 23, N-(2,4-Difluorophenyl)-N′-[1-(3-trifluoromethylbenzenesulfonyl)-piperidin-4-yl]malonamide]
> 20	0.74	O=C(CNC1CCN(S(=O)(=O)c2cccc(C(F)(F)F)c2)CC1)Nc1cc(C(F)(F)F)cc(C(F)(F)F)c1 [Compound 18, N-(3,5-Bis-(trifluoromethyl)phenyl)-2-[1-(3-trifluoromethyl-benzenesulfonyl)piperidin-4-ylamino]acetamide]
